Legend:
[1] = molecular target: T1, Her2 kinase (Homo sapiens, UniProt P04626); assay: Inhibition Activity Assay on Her2 Enzyme (ELISA, PGT substrate); type: biochemical; settings: 8 min at 4° C., read-out: Inhibition Activity (EC50) on Her-2
T1 construct: purchased Cell Signaling Tech #7382
Method: Inhibition Activity Assay on Her2 Enzyme
1. Her2 kinase, Cell Signaling Tech, #7382, Lot. 2, reserved at −80° C.;
2. PBST: PBS+0.05% (v/v) Tween 20;
3. Confining liquid: 3% of BSA in PBS;
4. HEPEs buffer (2×): 50 mM HEPEs, 20 mM MgCl2, 0.1 mM MnCl2, 0.2 mM Na3VO4, adjusted to pH of 7.4 with NaOH;
5. PGT, Sigma, Cat#P0275): 2 mg/ml of stock solution was prepared by dissolving PBS, reserved at −20° C.
6. ATP: […] of stock solution was prepared by dissolving ddH2O, reserved at −20° C.;
7. Mice anti-phosphorylation tyrosine-HRP: Invitrogen-037720, 0.5 mg/ml, reserved at 4° C.;
8. TMB: Cell Signaling Tech, Cat #7004L;
9. DTT: 2.5 M of stock solution was prepared with ddH2O, reserved at −20° C. Before use, 2×HEPEs buffer was added in the solution to the final concentration of 1.25 mM.
1. 2 mg/ml of PGT was diluted with PBS to 0.2 mg/ml. 60 μl of the resulting solution was added in each well. The elisa plate was placed in a refrigerator at 4° C. and coated overnight;
2. The coating solution was discarded to stop the coating. The plate was washed four times with PBS, and then beaten to dryness;
3. The elisa plate was placed in a refrigerator at 4° C., drained out and stood for 3h.
4. […] of aqueous solution of each compound was diluted with ddH2O to a desirable concentration. Then, the solution was added in the corresponding elisa well by 25 μl/well;
5. 2 nM of ATP solution was diluted with ddH2O to 25 folds and then sufficiently mixed. The resulting solution was separately added in each elisa well by 25 μl per well (25 μl ddH2O was added in the negative control);
6. Her2 kinase was diluted with 2×TKB to 800 folds. The resulting solution was added in the elisa well by 50 μl per well. Then, the enzyme reaction began. Moreover, the elisa plate was immediately placed in a micro-oscillator. The reaction is carried out for 8 min at the temperature of 4° C.;
7. 2% of SDS was added in the elisa well to stop the reaction by adding 100 μl of SDS in each well. The solution was sufficiently mixed on the micro-oscillator to sufficiently mix for about 5 min;
8. The reaction solution was sucked out. The plate was washed four times with PBST. After the plate was beaten to dryness, 0.25 μg/ml of mice anti-phosphorylation tyrosine-HRP which was diluted with confining liquid was added in the plate by 100 μl per well, and then reacted for 30 min at the room temperature.
9. The antibody reaction solution was sucked out. The plate was washed six times with PBST. After the plate was beaten to dryness, TMB peroxidase substrate was added in the plate with 100 μl/well, and then reacted in the dark for 15 min at the room temperature;
10. 100 μl of 2N H2SO4 was added in the solution to stop the chromogenic reaction. After the bubbles were cleansed, the solution was measured in elisa at 450 nm.
OD values were converted in relative inhibition ratios according to following formula: Relative inhibition ratio=[1−(experiment values−NC mean values)/(PC mean values−NC mean values)]×100%

[2] = test system: NCI-H1650 cells; assay: NCI-H1650 Cell Growth Inhibition Test (SRB Assay); type: cell-based; settings: Homo sapiens, 72 h incubation
Method: NCI-H1650 Cell Growth Inhibition Test (SRB Assay)
1. Cell strains: NCI-H1650 (human non-small cell lung cancer cell strains);
2. SRB, 0.4% (w/v) working solution was formulated with 1% glacial acetic acid and reserved at 4° C.; antitumor compounds; DMSO
1. A plate (10 cm) of cells in logarithmic growth phase normally cultured was collected;
2. The culture solution was sucked out. The plate was washed with 5 mL of PBS 1-2 times;
3. 1.5 mL of 0.25% pancreatin was added to the plate to infiltrate the cells;
4. The pancreatin was sucked out. The culture plate was placed in an incubator. Digestion was carried out for about 3 min at 37° C.;
5. 4 mL of complete culture solution was added to the culture plate to stop the digestion. The cells were carefully scoured with micropipette (1 ml) to give a uniform single cell suspension. The suspensin was implanted into a 96-well cell culture plate by 6000 cells/100 μl per well. The culture plate was incubated overnight under 5% CO2 at 37° C. In day 2, 100 μl of culture solution comprising a compound was added in each well, and further incubated for 72 h under 5% CO2 at 37° C.;
6. The culture solution was sucked out. 100 uL of TCA fixed cells which were diluted to 10% were added to each well. The plate was kept in a refrigerator for 1 h at 4° C.
7. TCA stationary liquid was sucked out. Each well was washed with 150 μL of ddH2O five times;
8. After the stationary liquid was cleansed, the plate was dried in the air at the room temperature;
9. 60 μL of SRB staining solution was added in each well. The well was stained for 15 min at the room temperature;
10. The SRB staining solution was sucked out. Each well was washed with 150 μL of 1% glacial acetic acid five times;
11. After the SRB staining solution was cleansed, the plate was dried in the air at the room temperature;
12. 100 μL of 10 mM Tris was added in each well, the plate was vibrated to dissolve out SRB;
13. OD values were determined at 570 nM.
1. Calculation of Relative Inhibition Ratio The inhibition ratio of a compound on cell growth=(PC−n)/(PC−NC)×100%
IC50: Concentration of a compound where inhibition ratio was 50%. IC50 values were fitted with Origin7.5.

T1 sequence (P04626 676-1255 limits assumed): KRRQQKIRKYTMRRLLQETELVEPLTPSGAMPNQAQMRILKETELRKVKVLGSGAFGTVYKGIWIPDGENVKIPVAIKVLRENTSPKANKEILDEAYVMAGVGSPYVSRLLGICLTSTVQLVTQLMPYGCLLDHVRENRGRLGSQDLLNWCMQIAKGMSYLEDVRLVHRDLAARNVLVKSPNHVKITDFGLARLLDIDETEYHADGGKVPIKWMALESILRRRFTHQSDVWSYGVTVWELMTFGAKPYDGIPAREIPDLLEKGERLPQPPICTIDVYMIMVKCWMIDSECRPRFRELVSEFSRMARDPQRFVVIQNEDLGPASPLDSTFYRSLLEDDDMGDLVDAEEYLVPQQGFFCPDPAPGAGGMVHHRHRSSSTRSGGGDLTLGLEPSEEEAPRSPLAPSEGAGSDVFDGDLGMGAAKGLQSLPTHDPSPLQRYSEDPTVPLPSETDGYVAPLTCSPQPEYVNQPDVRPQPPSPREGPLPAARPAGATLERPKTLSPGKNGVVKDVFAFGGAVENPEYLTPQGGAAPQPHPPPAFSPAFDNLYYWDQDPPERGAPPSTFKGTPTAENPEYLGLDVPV

SMILES | EC50 [1] | IC50 [2]
CN(C)C/C=C/C(=O)Nc1cc2c(Nc3ccc(OCc4ccccn4)c(Cl)c3)c(C#N)cnc2cc1OC1CCOC1 (stereo not drawn) [Example 21, (E)-N-(4-(3-CHLORO-4-(PYRIDIN-2-YL-METHOXY)PHENYLAMINO)-3-CYANO-7-(TETRAHYDROFURAN-3-YL-OXY)QUINOLIN-6-YL)-4-(DIMETHYLAMINO)-BUT-2-ENAMIDE] | 234 nM | –
CN(C)C/C=C/C(=O)Nc1cc2c(Nc3ccc(OCc4ccccn4)c(Cl)c3)c(C#N)cnc2cc1O[C@H]1CCOC1 [Example 138, (S,E)-N-(4-(3-CHLORO-4-(PYRIDIN-2-YL-METHOXY)PHENYLAMINO)-3-CYANO-7-(TETRAHYDROFURAN-3-YL-OXY)QUINOLIN-6-YL)-4-(DIMETHYLAMINO)-BUT-2-ENAMIDE] | 244 nM | 1100 nM
CN(C)C/C=C/C(=O)Nc1cc2c(Nc3ccc(OCc4ccccn4)c(Cl)c3)c(C#N)cnc2cc1O[C@@H]1CCOC1 [Example 139, (R,E)-N-(4-(3-CHLORO-4-(PYRIDIN-2-YL-METHOXY)PHENYLAMINO)-3-CYANO-7-(TETRAHYDROFURAN-3-YL-OXY)QUINOLIN-6-YL)-4-(DIMETHYLAMINO)-BUT-2-ENAMIDE] | – | 1130 nM
CN(C)C/C=C/C(=O)Nc1cc2c(Nc3ccc(OCc4cccc(F)c4)c(Cl)c3)c(C#N)cnc2cc1OC1CCOC1 (stereo not drawn) [Example 9, (E)-N-(4-(4-(3-FLUOROBENZYLOXY)-3-CHLOROPHENYLAMINO)-3-CYANO-7-(TETRAHYDROFURAN-3-YL-OXY)QUINOLIN-6-YL)-4-(DIMETHYLAMINO)-BUT-2-ENAMIDE] | 221 nM | 636 nM

Continued by falling EC50 [1], values first:

EC50 [1] | IC50 [2] | SMILES
161 nM | – | CN(C)C/C=C/C(=O)Nc1cc2c(Nc3ccc(F)c(Cl)c3)c(C#N)cnc2cc1OC1CCOC1 (stereo not drawn) [Example 4, (E)-N-(4-(3-CHLORO-4-FLUOROPHENYLAMINO)-3-CYANO-7-(TETRAHYDROFURAN-3-YL-OXY)QUINOLIN-6-YL)-4-(DIMETHYLAMINO)-BUT-2-ENAMIDE]
110 nM | – | C#Cc1cccc(Nc2c(C#N)cnc3cc(O[C@H]4CCOC4)c(NC(=O)/C=C/CN(C)C)cc23)c1 [Example 140, (S,E)-N-(3-CYANO-4-(3-ETHYNYLPHENYLAMINO)-7-(TETRAHYDROFURAN-3-YL-OXY)QUINOLIN-6-YL)-4-(DIMETHYLAMINO)-BUT-2-ENAMIDE]
96 nM | – | C#Cc1cccc(Nc2c(C#N)cnc3cc(OC4CCOC4)c(NC(=O)/C=C/CN(C)C)cc23)c1 (stereo not drawn) [Example 5, (E)-N-(3-CYANO-4-(3-ETHYNYLPHENYLAMINO)-7-(TETRAHYDROFURAN-3-YL-OXY)QUINOLIN-6-YL)-4-(DIMETHYLAMINO)-BUT-2-ENAMIDE]
